The text below walks through data of patent publication US20250320140A1, “USE OF MEDIUM CHAIN PERACIDS FOR BIOFILM INHIBITION IN INDUSTRIAL RECIRCULATING WATER SYSTEMS” (ECOLAB USA INC., priority 2017, published 2025).

A short description of the series: Solubility of sulfonated peracids at pH 4. It is filed as physicochemical. As to conditions: pH of 4.

Regarding `O=C(CCCCCCCCCCS(=O)(=O)O)OO` [11-sulfoundecane peroxoic acid], the solubility entry is reported as “about 1.3%”.
